Assay [1] concerns the target T1, His-GST-TVMV-hRIPK1(1-324) (Homo sapiens, UniProt Q13546).
T1 construct: The coding region of human RIPK1(1-324) flanked by NdeI site at 5′ end; made in house; host or cells: Spodoptera frugiperda Sf9 insect cells (baculovirus, Bac-to-Bac)
T1 sequence (Q13546 1-324): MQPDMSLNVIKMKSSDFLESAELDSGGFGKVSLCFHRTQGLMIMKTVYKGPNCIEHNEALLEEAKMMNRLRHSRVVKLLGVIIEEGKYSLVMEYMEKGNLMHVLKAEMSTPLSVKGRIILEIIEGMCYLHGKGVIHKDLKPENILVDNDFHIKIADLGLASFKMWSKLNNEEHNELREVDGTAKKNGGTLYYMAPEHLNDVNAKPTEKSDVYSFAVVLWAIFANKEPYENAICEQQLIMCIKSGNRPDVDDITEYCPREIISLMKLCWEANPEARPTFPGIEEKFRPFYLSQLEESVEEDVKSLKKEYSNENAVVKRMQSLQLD
The experiment in a line: biochemical. It counts as binding.

In assay [2] the test system is MLKL phosphorylation in HT29-L23 human colorectal adenocarcinoma cells. Put plainly: MLKL phosphorylation high-content assay. It counts as cell-based.
Assay [3] addresses GST-tagged PIK3Cδ in complex with PIK3R1 (Homo sapiens, UniProt O00329). Put plainly: PI3Kδ HTRF binding assay. The note with it: read-out: PIK3CD IC50. (In general: TR-FRET usually uses a lanthanide donor and a delayed reading to cut background.)
[4] abbreviates: HTRF probe displacement, 1 h at rt, read-out: RIPK1 IC50.
The mark [5] stands for this setting: read-out: pMLKL IC50, HT29-L23 cells, necroptosis induced with TNFα, SMAC mimetic and Z-VAD, 6 h, maximal inhibition defined by Nec1s.
Setting [6] is: HTRF probe displacement, 1 h at rt.
Where [7] appears, read: Homo sapiens, 6 h, read-out: pMLKL IC50, HT29-L23 cells, necroptosis induced with TNFα, SMAC mimetic and Z-VAD, 6 h, maximal inhibition defined by Nec1s.
Setting [8] is: Table 22, compounds of the present invention, read-out: RPIK1 IC50.

pIC50: −log10 of the molar value. Read-outs that look alike come from different tables or passages of the source.

For orientation: pIC50 means the IC50 on a negative log10 scale, so that one unit is a factor of ten.

Sequence of GST-tagged PIK3Cδ in complex with PIK3R1 (O00329 whole entry): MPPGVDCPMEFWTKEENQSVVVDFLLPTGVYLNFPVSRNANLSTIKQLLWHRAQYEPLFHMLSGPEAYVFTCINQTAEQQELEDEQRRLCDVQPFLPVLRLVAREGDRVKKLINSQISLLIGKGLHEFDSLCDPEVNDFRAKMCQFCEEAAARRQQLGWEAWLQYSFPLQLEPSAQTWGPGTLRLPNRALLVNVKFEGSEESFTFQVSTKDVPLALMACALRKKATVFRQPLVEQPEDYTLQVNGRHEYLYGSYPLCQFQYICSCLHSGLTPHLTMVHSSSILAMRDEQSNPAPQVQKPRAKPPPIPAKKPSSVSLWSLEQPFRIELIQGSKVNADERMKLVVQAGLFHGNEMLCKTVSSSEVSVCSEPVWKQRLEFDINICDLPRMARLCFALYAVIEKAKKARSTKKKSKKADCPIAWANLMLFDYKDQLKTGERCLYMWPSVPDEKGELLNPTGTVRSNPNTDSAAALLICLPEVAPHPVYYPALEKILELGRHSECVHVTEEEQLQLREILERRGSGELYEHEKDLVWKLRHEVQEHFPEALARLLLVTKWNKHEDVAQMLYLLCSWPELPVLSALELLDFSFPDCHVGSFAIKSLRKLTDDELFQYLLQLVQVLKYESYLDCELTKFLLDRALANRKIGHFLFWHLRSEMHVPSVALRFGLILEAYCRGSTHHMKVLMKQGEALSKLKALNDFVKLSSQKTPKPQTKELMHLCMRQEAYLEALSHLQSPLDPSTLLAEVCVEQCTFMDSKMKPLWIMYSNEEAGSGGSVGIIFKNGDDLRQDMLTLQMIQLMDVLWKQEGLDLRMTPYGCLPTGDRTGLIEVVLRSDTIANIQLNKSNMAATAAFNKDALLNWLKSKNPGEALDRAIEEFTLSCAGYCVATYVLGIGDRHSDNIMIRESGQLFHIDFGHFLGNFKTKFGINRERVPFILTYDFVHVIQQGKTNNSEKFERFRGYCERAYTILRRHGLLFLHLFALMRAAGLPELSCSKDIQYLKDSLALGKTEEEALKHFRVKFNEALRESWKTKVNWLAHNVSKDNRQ
Sequence of GST-tagged PIK3Cδ in complex with PIK3R1 (P27986 whole entry partner): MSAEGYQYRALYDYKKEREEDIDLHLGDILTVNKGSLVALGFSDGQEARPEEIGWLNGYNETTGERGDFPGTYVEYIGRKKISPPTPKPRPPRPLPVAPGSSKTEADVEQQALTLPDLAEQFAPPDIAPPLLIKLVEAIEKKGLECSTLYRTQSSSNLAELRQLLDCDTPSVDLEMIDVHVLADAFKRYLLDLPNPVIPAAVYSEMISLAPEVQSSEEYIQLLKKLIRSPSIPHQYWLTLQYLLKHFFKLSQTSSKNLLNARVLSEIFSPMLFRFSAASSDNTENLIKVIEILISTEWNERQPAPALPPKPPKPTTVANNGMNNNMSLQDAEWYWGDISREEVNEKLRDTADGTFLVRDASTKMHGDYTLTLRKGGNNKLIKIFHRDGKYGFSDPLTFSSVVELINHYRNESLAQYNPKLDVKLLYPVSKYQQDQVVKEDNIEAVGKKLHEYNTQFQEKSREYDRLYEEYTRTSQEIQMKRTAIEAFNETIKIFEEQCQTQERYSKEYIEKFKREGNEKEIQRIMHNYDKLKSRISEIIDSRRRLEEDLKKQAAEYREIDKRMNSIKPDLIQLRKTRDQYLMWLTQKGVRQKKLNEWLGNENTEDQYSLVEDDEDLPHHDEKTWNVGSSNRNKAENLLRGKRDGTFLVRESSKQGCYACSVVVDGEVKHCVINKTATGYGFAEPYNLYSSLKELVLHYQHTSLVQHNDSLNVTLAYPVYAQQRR

As for `Nc1nc2cc(-c3ccc(Cl)c(C(=O)NCCC(O)c4ccc(Cl)cn4)c3F)ccn2n1` (single isomer, unassigned) [Example 83, 3-(2-amino-[1,2,4]triazolo[1,5-a]pyridin-7-yl)-6-chloro-N-(3-(5-chloropyridin-2-yl)-3-hydroxypropyl)-2-fluorobenzamide], the pIC50 is 7.54 in assay [1] (setting [4]), 7.77 in assay [2] (setting [5]) and 4.96 in assay [3] (setting [6]).

On to `COc1ccc(-c2ccn3nc(N)nc3c2)c(F)c1C(=O)NCC[C@@H](O)c1ccc(Cl)cc1` [Example 148, (R)-3-(2-amino-[1,2,4]triazolo[1,5-a]pyridin-7-yl)-N-(3-(4-chlorophenyl)-3-hydroxypropyl)-2-fluoro-6-methoxybenzamide], for which the negative-log IC50 (pIC50) is 8.08 in assay [1] (setting [4]), 7.77 in assay [2] (setting [7]) and 5.30 in assay [3].

`Cc1ccc(-c2ccn3nc(N)nc3c2)c(F)c1C(=O)NCCCC1CCCCC1` [Example 52, 3-(2-amino-[1,2,4]triazolo[1,5-a]pyridin-7-yl)-N-(3-cyclohexylpropyl)-2-fluoro-6-methylbenzamide]: the negative logarithm of the IC50 (pIC50) in assay [1] (setting [4]) is 9.52; in assay [2] (setting [7]), 8.96; in assay [3] (setting [6]) it was less than 4.82.

Take `Cc1ccc(-c2ccn3nc(N)nc3c2)c(F)c1C(=O)NCC[C@@H](O)c1ccc(Cl)cc1` [Example 152, (R)-3-(2-amino-[1,2,4]triazolo[1,5-a]pyridin-7-yl)-N-(3-(4-chlorophenyl)-3-hydroxypropyl)-2-fluoro-6-methylbenzamide]: the pIC50 in assay [1] (setting [4]) is 8.64; in assay [1] (setting [8]), 8.64; in assay [2] (setting [7]) it was 9.30; in assay [2] (Homo sapiens, read-out: pMLKL IC50, Table 22, compounds of the present invention), 9.30; in assay [3] (setting [6]), less than 4.82.

As for `Cc1ccc(-c2ccn3nc(N)nc3c2)c(F)c1C(=O)NCC(F)(F)C(C)(O)c1ccc(Cl)cc1` (single isomer, unassigned) [Example 221, 3-(2-amino-[1,2,4]triazolo[1,5-a]pyridin-7-yl)-N-(3-(4-chlorophenyl)-2,2-difluoro-3-hydroxybutyl)-2-fluoro-6-methylbenzamide], the pIC50 is 8.49 in assay [1] (setting [4]), 9.05 in assay [2] (setting [7]) and less than 4.82 in assay [3] (setting [6]).

Regarding `Cc1c(F)cc(-c2ccn3nc(N)nc3c2)cc1C(=O)NCC(F)(F)C(O)c1ccc(F)cc1` (single isomer, unassigned) [Example 232, 5-(2-amino-[1,2,4]triazolo[1,5-a]pyridin-7-yl)-N-(2,2-difluoro-3-(4-fluorophenyl)-3-hydroxypropyl)-3-fluoro-2-methylbenzamide], the negative logarithm of the IC50 (pIC50) in assay [1] (setting [4]) was 8.35; in assay [2] (setting [5]), 8.52; in assay [3] (setting [6]), less than 4.82.

As for `Nc1nc2cc(-c3ccc(Cl)c(C(=O)NCC(F)(F)C(O)c4ccc(Cl)c(Cl)c4)c3F)ccn2n1` (single isomer, unassigned) [Example 264, 3-{2-amino-[1,2,4]triazolo[1,5-a]pyridin-7-yl}-6-chloro-N-[3-(3,4-dichlorophenyl)-2,2-difluoro-3-hydroxypropyl]-2-fluorobenzamide], the negative-log IC50 (pIC50) in assay [1] (setting [4]) was 8.21; in assay [2] (setting [5]), 9.00; in assay [3] (setting [6]), less than 4.82.

On to `Cc1cc(F)c(-c2ccn3nc(N)nc3c2)cc1C(=O)NCCC(O)c1ccc(F)cc1` (single isomer, unassigned) [Example 10, 5-(2-amino-[1,2,4]triazolo[1,5-a]pyridin-7-yl)-4-fluoro-N-(3-(4-fluorophenyl)-3-hydroxypropyl)-2-methylbenzamide], for which the negative-log IC50 (pIC50) in assay [1] (setting [4]) was 8.03; in assay [1] (setting [8]) it was 8.03; in assay [2] (setting [5]), 8.60; in assay [2] (read-out: pMLKL IC50, Table 22, compounds of the present invention), 8.60; in assay [3] (setting [6]) it was less than 4.82.

Take `Cc1ccc(-c2ccn3nc(N)nc3c2)c(F)c1C(=O)NCC(F)(F)C(O)c1ccc(F)cn1` (stereo not drawn) [Example 269, 3-{2-amino-[1,2,4]triazolo[1,5-a]pyridin-7-yl}-N-[2,2-difluoro-3-(5-fluoropyridin-2-yl)-3-hydroxypropyl]-2-fluoro-6-methylbenzamide]: the pIC50 was 8.34 in assay [1] (setting [4]), 8.82 in assay [2] (setting [5]) and less than 4.82 in assay [3] (setting [6]).

For `[2H]C([2H])([2H])C(O)(c1ccc(F)cc1)C(F)CNC(=O)c1c(Cl)ccc(-c2ccn3nc(N)nc3c2)c1F` (single isomer, unassigned) [Example 238, 3-(2-amino-[1,2,4]triazolo[1,5-a]pyridin-7-yl)-6-chloro-2-fluoro-N-(2-fluoro-3-(4-fluorophenyl)-3-hydroxybutyl-4,4,4-d3)benzamide], the figures for the negative logarithm of the IC50 (pIC50) in assay [1] (setting [4]), in assay [2] (setting [5]) and in assay [3] (setting [6]) were 7.80, 8.72 and less than 4.82, respectively.

Take `Cc1ccc(-c2ccn3nc(N)nc3c2)c(F)c1C(=O)NC(CF)CC(O)c1ccc(F)cc1` (single isomer, unassigned) [Example 27, 3-(2-amino-[1,2,4]triazolo[1,5-a]pyridin-7-yl)-2-fluoro-N-(1-fluoro-4-(4-fluorophenyl)-4-hydroxybutan-2-yl)-6-methylbenzamide]: the pIC50 in assay [1] (setting [4]) was 7.22; in assay [2] (setting [5]), 6.70; in assay [3] (setting [6]), less than 4.82.

Take `Cc1ccc(-c2ccn3nc(N)nc3c2)c(F)c1C(=O)NCCC(C)(C)c1ccc(Cl)cc1` [Example 15, 3-(2-amino-[1,2,4]triazolo[1,5-a]pyridin-7-yl)-N-(3-(4-chlorophenyl)-3-methylbutyl)-2-fluoro-6-methylbenzamide]: the pIC50 is 8.82 in assay [1] (setting [4]), 8.77 in assay [2] (setting [7]) and less than 4.82 in assay [3] (setting [6]).

Regarding `Cc1ccc(-c2ccn3nc(N)nc3c2)c(F)c1C(=O)NC(C)CC(O)c1ccc(F)cc1` (single isomer, unassigned) [Example 37, 3-(2-amino-[1,2,4]triazolo[1,5-a]pyridin-7-yl)-2-fluoro-N-(4-(4-fluorophenyl)-4-hydroxybutan-2-yl)-6-methylbenzamide], the negative logarithm of the IC50 (pIC50) in assay [1] (setting [4]) is 7.68; in assay [2] (setting [5]) it was 7.39; in assay [3] (setting [6]) it was less than 4.82.

As to `Cc1ccc(-c2ccn3nc(N)nc3c2)c(F)c1C(=O)NC(CF)CC(O)c1ccc(F)cc1` (single isomer, unassigned) [Example 28, 3-(2-amino-[1,2,4]triazolo[1,5-a]pyridin-7-yl)-2-fluoro-N-(1-fluoro-4-(4-fluorophenyl)-4-hydroxybutan-2-yl)-6-methylbenzamide], the figures for the negative logarithm of the IC50 (pIC50) in assay [1] (setting [4]), in assay [2] (setting [5]) and in assay [3] (setting [6]) were 8.29, 8.31 and 5.06, respectively.

Regarding `Cc1ccc(-c2ccn3nc(N)nc3c2)cc1C(=O)NCC[C@H](O)c1ccc(Cl)cc1` [Example 149, (S)-5-(2-amino-[1,2,4]triazolo[1,5-a]pyridin-7-yl)-N-(3-(4-chlorophenyl)-3-hydroxypropyl)-2-methylbenzamide], the negative logarithm of the IC50 (pIC50) was 8.09 in assay [1] (setting [4]); 8.09 in assay [1] (setting [8]); 8.89 in assay [2] (Homo sapiens, 6 h, HT29-L23 cells, necroptosis induced with TNFα, SMAC mimetic and Z-VAD, 6 h, maximal inhibition defined by Nec1s, read-out: pMLKL IC50); 8.89 in assay [2] (Homo sapiens, Table 22, compounds of the present invention, read-out: pMLKL IC50); less than 4.82 in assay [3] (setting [6]).

Turning to `Cc1cc(F)c(-c2ccn3nc(N)nc3c2)cc1C(=O)NCC(F)(F)C(O)c1ccc(F)cc1` (single isomer, unassigned) [Example 97, 5-(2-amino-[1,2,4]triazolo[1,5-a]pyridin-7-yl)-N-(2,2-difluoro-3-(4-fluorophenyl)-3-hydroxypropyl)-4-fluoro-2-methylbenzamide], the negative logarithm of the IC50 (pIC50) in assay [1] (setting [4]) was 8.89; in assay [2] (setting [5]) it was 8.19; in assay [3] (setting [6]), less than 4.82.

For the compound `[2H]C([2H])(CC([2H])(O)c1ccc(Cl)cc1)NC(=O)c1c(C)ccc(-c2ccn3nc(N)nc3c2)c1F` (single isomer, unassigned) [Example 53, 3-(2-amino-[1,2,4]triazolo[1,5-a]pyridin-7-yl)-N-(3-(4-chlorophenyl)-3-hydroxypropyl-1,1,3-d3)-2-fluoro-6-methylbenzamide], the pIC50 was 8.92 in assay [1] (setting [4]), 9.05 in assay [2] (setting [5]) and 4.85 in assay [3] (setting [6]).

As for `[2H]C([2H])([2H])C(O)(c1ccc(F)cc1)C(F)CNC(=O)c1c(Cl)ccc(-c2ccn3nc(N)nc3c2)c1F` (single isomer, unassigned) [Example 239, 3-(2-amino-[1,2,4]triazolo[1,5-a]pyridin-7-yl)-6-chloro-2-fluoro-N-(2-fluoro-3-(4-fluorophenyl)-3-hydroxybutyl-4,4,4-d3)benzamide], the pIC50 in assay [1] (setting [4]) was 7.26; in assay [2] (setting [5]), 7.59; in assay [3] (setting [6]), less than 4.82.

Consider `Cc1cc(F)c(-c2ccn3nc(N)nc3c2)c(F)c1C(=O)NCC[C@@H](O)c1ccc(Cl)cc1` [Example 278, (R)-3-(2-amino-[1,2,4]triazolo[1,5-a]pyridin-7-yl)-N-(3-(4-chlorophenyl)-3-hydroxypropyl)-2,4-difluoro-6-methylbenzamide], for which the pIC50 was 7.89 in assay [1] (setting [4]), 7.42 in assay [2] (setting [7]) and less than 4.82 in assay [3] (setting [6]).

These data come from patent US11767322B2 (BRISTOL-MYERS SQUIBB COMPANY, priority 2020, dated 2023).
